Source: the supplement of paper PMC10307832

Tests used:
Test in all cases: relative viability (nuclei count vs DMSO), 5 days (fraction); higher = more cells survive
Erlotinib + Trametinib = compound: C#Cc1cccc(Nc2ncnc3cc(OCCOC)c(OCCOC)cc23)c1 [Erlotinib] + CC(=O)Nc1cccc(-n2c(=O)n(C3CC3)c(=O)c3c(Nc4ccc(I)cc4F)n(C)c(=O)c(C)c32)c1 [Trametinib] (partner 0.02 µM)
How it was run: (§1)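 Relative viability divides the nuclei count in treated wells by that in vehicle wells. Lung cancer cell lines were seeded in 1536-well plates, dosed by pin tool the next day, and fixed and stained after 5 days in one step with final 0.05% Triton X-100, 1% formaldehyde and 1 ug/ml Hoechst. Dosing was a single drug or a fixed anchor-drug dose plus five library-drug doses (not always all listed) in √10 steps, and values are medians of duplicate plates imaged at 4×.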

Erlotinib + Decitabine = compound: C#Cc1cccc(Nc2ncnc3cc(OCCOC)c(OCCOC)cc23)c1 [Erlotinib] + Nc1ncn([C@H]2C[C@H](O)[C@@H](CO)O2)c(=O)n1 [Decitabine] (partner 2 µM)
How it was run: as §1

Erlotinib + OSI-027 = compound: C#Cc1cccc(Nc2ncnc3cc(OCCOC)c(OCCOC)cc23)c1 [Erlotinib] + COc1cccc2cc(-c3nc([C@H]4CC[C@H](C(=O)O)CC4)n4ncnc(N)c34)[nH]c12 [OSI-027] (partner 0.5 µM)
How it was run: as §1

AT9283 + Tozasertib = compound: O=C(Nc1c[nH]nc1-c1nc2ccc(CN3CCOCC3)cc2[nH]1)NC1CC1 [AT9283] + Cc1cc(Nc2cc(N3CCN(C)CC3)nc(Sc3ccc(NC(=O)C4CC4)cc3)n2)n[nH]1 [Tozasertib] (partner 0.1 µM)
How it was run: as §1

Erlotinib + Luminespib = compound: C#Cc1cccc(Nc2ncnc3cc(OCCOC)c(OCCOC)cc23)c1 [Erlotinib] + CCNC(=O)c1noc(-c2cc(C(C)C)c(O)cc2O)c1-c1ccc(CN2CCOCC2)cc1 [Luminespib] (partner 0.01 µM)
How it was run: as §1

Cell Line | relative viability (Erlotinib + Trametinib; first compound 0.02 µM) | relative viability (Erlotinib + Trametinib; first compound 0.2 µM) | relative viability (Erlotinib + Trametinib; first compound 0.6325 µM) | relative viability (Erlotinib + Trametinib; first compound 2 µM) | relative viability (Erlotinib + Decitabine; first compound 0.02 µM) | relative viability (Erlotinib + Decitabine; first compound 0.2 µM) | relative viability (Erlotinib + Decitabine; first compound 0.6325 µM) | relative viability (Erlotinib + Decitabine; first compound 2 µM) | relative viability (Erlotinib + OSI-027; first compound 0.02 µM) | relative viability (Erlotinib + OSI-027; first compound 0.2 µM) | relative viability (Erlotinib + OSI-027; first compound 0.6325 µM) | relative viability (Erlotinib + OSI-027; first compound 2 µM) | relative viability (AT9283 + Tozasertib; first compound 0.003 µM) | relative viability (AT9283 + Tozasertib; first compound 0.03 µM) | relative viability (AT9283 + Tozasertib; first compound 0.09487 µM) | relative viability (AT9283 + Tozasertib; first compound 0.3 µM) | relative viability (Erlotinib + Luminespib; first compound 0.02 µM) | relative viability (Erlotinib + Luminespib; first compound 0.2 µM) | relative viability (Erlotinib + Luminespib; first compound 0.6325 µM) | relative viability (Erlotinib + Luminespib; first compound 2 µM)
HCC-366 | 0.335 | 0.294 | 0.277 | 0.215 | 0.353 | 0.324 | 0.335 | 0.264 | 0.969 | 0.805 | 0.468 | 0.438 | 0.127 | 0.438 | 0.0615 | 0.0586 | – | – | – | –
HCC-827 | 0.205 | 0.159 | 0.148 | 0.169 | 0.21 | 0.215 | 0.111 | 0.169 | 0.411 | 0.15 | 0.112 | 0.126 | 0.409 | 0.374 | 0.337 | 0.257 | 0.238 | 0.218 | 0.211 | 0.182
HOP-62 | 0.35 | 0.364 | 0.452 | 0.36 | 0.232 | 0.221 | 0.187 | 0.241 | 0.917 | 0.848 | 1.04 | 0.754 | 0.34 | 0.263 | 0.213 | 0.265 | 0.988 | 0.949 | 0.855 | 0.881
LC-2-ad | 0.902 | 0.907 | 0.87 | 0.775 | 0.889 | 0.79 | 0.735 | 0.656 | – | 0.837 | 0.725 | 0.475 | 0.422 | 0.285 | 0.321 | 0.25 | 1.13 | 0.976 | 1.17 | 0.745
LCLC-97TM1 | 0.197 | 0.197 | 0.163 | 0.168 | 0.224 | 0.254 | 0.234 | 0.256 | 0.697 | 0.553 | 0.504 | 0.489 | 0.199 | 0.123 | 0.18 | 0.181 | 0.901 | 0.798 | 0.948 | 0.824
LCLC-103H | 0.727 | 0.636 | 0.661 | 0.62 | 0.765 | 0.688 | 0.716 | 0.639 | 0.537 | 0.469 | 0.43 | 0.417 | 0.45 | 0.347 | 0.187 | 0.259 | 0.99 | 0.884 | 1.05 | 0.821
LK-2 | 0.867 | 0.543 | 0.842 | 0.586 | 0.294 | 0.291 | 0.346 | 0.262 | 0.202 | 0.211 | 0.21 | 0.192 | 0.174 | 0.225 | 0.172 | 0.209 | 0.151 | 0.166 | 0.203 | 0.15
LOU-NH91 | 0.759 | 0.57 | 0.739 | 0.644 | 0.715 | 0.626 | 0.688 | 0.602 | 0.506 | 0.47 | 0.473 | 0.43 | 0.61 | 0.391 | 0.373 | 0.388 | 0.412 | 0.297 | 0.364 | 0.31
LU99A | 0.705 | 0.583 | 0.643 | 0.484 | – | 0.92 | 0.983 | 0.765 | 0.295 | 0.303 | 0.284 | 0.259 | 0.268 | 0.247 | 0.226 | 0.222 | 0.27 | 0.257 | 0.231 | 0.223
LXF-289 | 0.639 | 0.672 | 0.647 | 0.684 | 0.448 | 0.398 | 0.363 | 0.383 | 0.79 | 0.766 | 0.721 | 0.551 | 0.2 | 0.127 | 0.0989 | 0.0888 | 0.813 | 0.622 | 0.707 | 0.634
NCI-H23 | 0.36 | 0.349 | 0.385 | 0.306 | 0.312 | 0.293 | 0.324 | 0.337 | 0.769 | 0.519 | 0.509 | 0.407 | 0.413 | 0.603 | 0.276 | 0.285 | 0.218 | – | 0.202 | 0.217
NCI-H322M | 0.472 | 0.461 | 0.462 | 0.445 | 0.718 | 0.582 | 0.55 | 0.545 | 0.533 | 0.483 | 0.406 | 0.394 | 0.499 | 0.511 | 0.395 | 0.443 | 0.806 | 0.595 | 0.528 | 0.443
NCI-H358 | 0.143 | 0.114 | 0.12 | 0.105 | 0.216 | 0.183 | 0.179 | 0.167 | 0.82 | 0.458 | 0.407 | 0.152 | 0.108 | 0.0953 | 0.107 | 0.0809 | 0.262 | 0.225 | 0.31 | 0.12
NCI-H1563 | – | – | – | – | – | – | – | – | 0.768 | 0.867 | 0.801 | 0.663 | – | – | – | – | 0.527 | 0.495 | 0.512 | 0.477
NCI-H1623 | – | – | – | – | – | – | – | – | 0.398 | 0.366 | 0.297 | 0.256 | 0.411 | 0.408 | 0.357 | 0.389 | 0.414 | 0.425 | 0.352 | 0.336
NCI-H1648 | 0.5 | 0.313 | 0.348 | 0.289 | 0.433 | 0.512 | 0.491 | 0.39 | 0.251 | 0.283 | 0.246 | 0.298 | 0.456 | 0.343 | 0.329 | 0.258 | – | – | – | –
NCI-H1792 | 0.435 | 0.423 | 0.47 | 0.446 | 0.634 | 0.482 | 0.505 | 0.477 | 0.728 | 0.561 | 0.586 | 0.362 | – | – | – | – | 0.42 | 0.319 | 0.49 | 0.281
NCI-H2228 | 0.436 | 0.708 | 0.49 | 0.381 | – | – | – | – | 0.643 | 0.537 | 0.525 | 0.366 | 0.333 | 0.199 | 0.142 | 0.138 | 0.151 | 0.131 | 0.149 | 0.121
